The results in this text go back to US8252973B2, “Metabolic engineering of lipid metabolism by improving fatty acid binding and transport” (The Salk Institute for Biological Studies, priority 2006, dated 2012).

What all share (format): binding
Experiment [1] addresses T1, At279 (At3g63170) (Arabidopsis thaliana, UniProt Q9M1X2).
T1 construct: At279 and At287 proteins were purified to homogeneity as described above; His tag (pHIS8 vector) (N, cleaved yes); made in house; host or cells: E. coli BL21 (DE3)
T1 sequence (Q9M1X2 1-279): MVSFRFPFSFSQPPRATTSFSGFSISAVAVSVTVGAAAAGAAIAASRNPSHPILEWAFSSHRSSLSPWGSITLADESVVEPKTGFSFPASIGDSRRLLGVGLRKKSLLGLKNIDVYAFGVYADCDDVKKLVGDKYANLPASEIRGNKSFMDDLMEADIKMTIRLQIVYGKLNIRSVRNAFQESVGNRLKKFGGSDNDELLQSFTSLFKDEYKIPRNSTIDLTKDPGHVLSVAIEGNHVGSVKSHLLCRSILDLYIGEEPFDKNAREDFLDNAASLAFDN
The experiment in a line: LC-MS analysis of fatty acids bound to purified At279 protein. The settings on record: protein over-expressed in and purified from E. coli, ethanol extract, negative-ion ESI. The protocol: (§1) Cloning, expression and purification of At3g63170 (At279) and At1g53520 (At287): Arabidopsis thaliana At3g63170 (At279) and At1g53520 (At287) genes were subcloned into the pHIS8 Escherichia coli expression vector derived from pET28a (+). For crystallization purpose, constructs of At279 and At287 lacking the transit peptide sequence found at the N-terminal region of the protein (˜50 amino acids) were also created. Transformed E. coli. BL21 (DE3) cells were incubated with shaking at 37° C. in Terrific broth containing 50 μg/ml kanamycin until A([…])=1.0. Protein expression was induced with 0.5 mM isopropyl 1-thio-β-galactopyranoside, and the cultures were incubated with shaking at 22° C. for an additional 6 h. Cells were harvested by centrifugation at 9,000×g and cell pellets re-suspended in lysis buffer (500 mM NaCl, 50 mM Tris-HCl (pH 8.0), 20 mM imidazole, 10% (v/v) glycerol 1% (v/v) Tween 20, 10 mM […]) supplemented with 1 mg/ml lysozyme. Following sonication and centrifugation of the lysed cell debris at 100,000×g, the supernatant was passed over a Ni2+-NTA column (Qiagen, Valencia, Calif.) equilibrated in lysis buffer, washed with 10 bed volumes of wash buffer (500 mM NaCl, 50 mM Tris-HCl (pH 8.0), 20 mM imidazole, 10 mM β-mercaptoethanol), and the His-tagged protein eluted with 10 bed volumes of elution buffer (500 mM NaCl, 50 mM Tris-HCl (pH 8.0), 250 mM imidazole, 10 mM β-mercaptoethanol). The N-terminal His tag was cleaved by thrombin digestion during a 24-h dialysis against digestion buffer (500 mM NaCl, 50 mM Tris (pH 8.0), 10 mM β-mercaptoethanol) at 4° C. Cleaved protein was isolated by running the dialyzed sample over another Ni2+-NTA column equilibrated in digestion buffer to remove the His tag and uncleaved protein, followed by a benzamidine-Sepharose column to remove thrombin. A Superdex S75 gel filtration column (Amersham Biosciences) equilibrated in gel filtration buffer (500 mM NaCl, 25 mM HEPES (pH 7.5), 2 mM dithiothreitol (DTT) was utilized to isolate homogeneous At279 and A287. Peak fractions were collected and dialyzed against crystallization storage buffer (100 mM NaCl, 25 mM HEPES (pH 7.5), 2 mM DTT). The resulting samples were subjected to SDS-PAGE and judged to be >95% pure based upon Coomassie staining. At279 and At287 were subsequently concentrated to 10-15 mg/ml and stored at −80° C.
(§2) At279 and At287 proteins were purified to homogeneity as described above. Ice-cold HPLC grade ethanol (600 μl) was added to the proteins (150 μl protein sample at 10 mg/ml previously dialyzed against 20 mM ammonium bicarbonate). The samples were vortexed and incubated at −20° C. for 3 days. For LC-MS analysis, the samples were centrifuged, and the supernatant containing the FAs was removed and placed in a new glass vial. The solvent was evaporated at 25° C., and the remaining residue resuspended in 200 μl propanol. The extracts were analyzed by liquid chromatography (LC) using an Agilent 1100 HPLC employing a Gemini reversed-phase C18 column (4.6×150 mm, 5 μ) running at a flow rate of 1 ml/min, and coupled to an electrospray ionization (ESI) XCT ion trap mass spectrometer (Agilent) operated in the negative-ion mode employing a continual introduction of a 20 mM ammonium acetate solution flowing at 100 μl/min. A linear gradient of acetonitrile (30-100% v/v) in 25 mM ammonium bicarbonate, pH 8, was used. The negative ion-ESI mass spectra of FA standards were as follows: Laurie acid (C12:0) (m/z)=198.7 ([M-H]-), Myristic acid (C14:0) (m/z)=226.9 ([M-H]-), Palmitic acid (C16:0)/m/z)=254.9 ([M-H]-) and Stearic acid (C18:0) (m/z)=282.9 ([M-H]-).

The target in a further experiment is T2, At287 (At1g53520) (Arabidopsis thaliana, UniProt Q9C8L2).
T2 construct: At279 and At287 proteins were purified to homogeneity as described above; His tag (pHIS8 vector) (N, cleaved yes); made in house; host or cells: E. coli BL21 (DE3)
T2 sequence (Q9C8L2 73-287): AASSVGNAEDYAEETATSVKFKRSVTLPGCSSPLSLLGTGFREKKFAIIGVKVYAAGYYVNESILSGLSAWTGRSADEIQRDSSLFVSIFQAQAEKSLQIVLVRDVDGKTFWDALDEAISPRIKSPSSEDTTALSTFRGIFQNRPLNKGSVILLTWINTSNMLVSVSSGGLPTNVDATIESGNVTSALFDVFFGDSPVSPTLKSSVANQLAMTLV
Put plainly: LC-MS analysis of fatty acids bound to purified At287 protein. To be noted: protein over-expressed in and purified from E. coli, ethanol extract, negative-ion ESI. The protocol:
as §1, §2

Experiment [2] deals with T3, At279 (At3g63170) (Arabidopsis thaliana, UniProt Q9M1X2).
T3 construct: Crystals of the heterologously expressed At279 C-terminal construct (residues 77 to 279) were obtained by vapor diffusion; His tag (pHIS8 vector) (N, cleaved yes); made in house; host or cells: E. coli BL21 (DE3)
T3 sequence (Q9M1X2 77-279): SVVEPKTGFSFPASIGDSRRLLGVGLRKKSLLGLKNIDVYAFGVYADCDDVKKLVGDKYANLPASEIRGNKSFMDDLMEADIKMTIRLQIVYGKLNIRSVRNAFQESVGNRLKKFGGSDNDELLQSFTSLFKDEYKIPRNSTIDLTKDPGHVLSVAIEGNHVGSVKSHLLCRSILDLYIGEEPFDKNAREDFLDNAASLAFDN
Put plainly: X-ray crystal structure of At279 with bound small molecule. To be noted: ligand likely derived from E. coli, carboxylic acid sequestered by Arg 103 and Tyr 116. On the procedure:
Crystals of the heterologously expressed At279 C-terminal construct (residues 77 to 279) were obtained by vapor diffusion in 2 μl hanging drops incubated at 4° C. and consisting of a 1:1 mixture of protein and crystallization buffer. The crystallization buffer contained 19% (w/v) PEG 3350, 0.3 M KCl, 2 mM DTT and 100 mM TAPS buffer at pH 8.5. Prior to freezing in liquid nitrogen, native crystals were passed through a cryogenic buffer identical to the crystallization buffer except for the use of 21% (w/v) PEG 3350 and the inclusion of 20% (v/v) ethylene glycol. For heavy atom derivatization, native At279 crystals were soaked overnight in crystallization buffer differing from the crystallization solution due to an increased PEG 3350 concentration (21% (w/v)) and the inclusion of 1 mM K2PtCl4 prior to cryogenic freezing as before. A multi-wavelength anomalous dispersion (MAD) data set was collected at the Pt edge on a K2PtCl4 derivative crystal at the Stanford Synchrotron Radiation Laboratory (SSRL) on beam line BL1-5. Data were processed with HKL2000 and reduced to a unique set of indexed intensities to a resolution of 2.6 Å. A single-wavelength native data set was collected at SSRL and processed with HXL2000 to a resolution of 1.9 Å. At279 crystals belong to the P2(1)2(1)2(1) space group, with average unit cell dimensions of a=56.44 Å, b=56.96 Å, c=140.37 Å, α=β=γ=90°. […]

As to `CCCCCCCCCCCC(=O)O` [Laurie acid, lauric acid], the entries for the “fatty acid bound to purified At279 (presence in protein extract by LC-MS)” value (“fatty acid bound to purified At279” for short) on At279 (At3g63170) [1] and at At279 (At3g63170) [1] (listed as C12:0) were “bind” and “clearly showed the presence”, respectively. Besides, the “fatty acid bound to purified At287 (presence in protein extract by LC-MS)” value (“fatty acid bound to purified At287” for short) is reported as “bind” on At287 (At1g53520) and “clearly showed the presence” on At287 (At1g53520) (listed as C12:0). Further, the results for the “small molecule bound in At279 crystal structure” value at At279 (At3g63170) [2] and at At279 (At3g63170) [2] (listed as lauric acid) were “sequestered in a well-organized binding pocket” and “bound in a cavity partially overlapping with the originally identified CHI active site”, respectively.
Consider `CCCCCCCCCCCCCC(=O)O` [Myristic acid], for which the “fatty acid bound to purified At279” value is recorded as “bind” at At279 (At3g63170) [1] and “clearly showed the presence” at At279 (At3g63170) [1] (listed as C14:0). The “fatty acid bound to purified At287” value on At287 (At1g53520) was “bind”; at At287 (At1g53520) (listed as C14:0) it was “clearly showed the presence”.
Consider `CCCCCCCCCCCCCCCC(=O)O` [Palmitic acid], for which the “fatty acid bound to purified At279” value at At279 (At3g63170) [1] is reported as “bind”; at At279 (At3g63170) [1] (listed as C16:0), “clearly showed the presence”. The “fatty acid bound to purified At287” value is on record as “bind” at At287 (At1g53520) and “clearly showed the presence” at At287 (At1g53520) (listed as C16:0).
For `CCCCCCCCCCCCCCCCCC(=O)O` [Stearic acid], the “fatty acid bound to purified At279” value at At279 (At3g63170) [1] is reported as “bind”; on At279 (At3g63170) [1] (listed as C18:0), “clearly showed the presence”. Further, the “fatty acid bound to purified At287” value at At287 (At1g53520) is given as “bind”; on At287 (At1g53520) (listed as C18:0), “clearly showed the presence”.
